Experimental data published in US20220403326A1, “MEDIA FORMULATIONS AND METHODS FOR PRODUCING PROGENITOR T CELLS” (priority 2019, published 2022).

What was measured:
Assay type in all cases: cell-based, human
[1] = tested on: Notch target genes in CD34+ HSPCs (CD38lo/− and CD38+ fractions); assay: qRT-PCR of Notch target and pro-myeloid genes after 5 days of culture
Text: Umbilical cord blood (UCB) was collected from consenting donors at Mount Sinai Hospital, Toronto, Ontario, in accordance with institutional research ethics board policies. Mononuclear cells were fractioned via centrifugation using Lympholyte cell separation media (Cedarlane) and red blood cells were lysed using ammonium-chloride-potassium (ACK) lysing buffer prepared in-house. Mononuclear cells were enriched for >90% CD34+ cells using EasySep™ Human CD34+ Positive Selection Kit (Stemcell Technologies) according to the manufacturer's instructions. For certain experiments, enriched CD34+ cells were stained with CD34-APC and CD38-PE antibodies and sorted into CD34+CD38lo/− and CD34+CD38+ fractions using FACS Aria flow cytometer ([…]).
Cells were lysed and RNA isolated using the PureLink™ RNA Micro Kit (Invitrogen) according to the manufacturer's protocol. cDNA was reverse-transcribed from RNA using SuperScript™ III Reverse Transcriptase (Invitrogen) according to the manufacturer's protocol. cDNA was amplified with primers and FastStart SYBR Green Mastermix (Roche) using QuantStudio™ 6 Flex (Applied Biosystems). Relative expression of individual genes was calculated by the delta cycle threshold (ΔCt) method and normalization using β-actin to control for differences in input cDNA.
TNFα activates the NF-KB pathway, which may regulate Notch target genes or regulate Notch itself (FIG. 3a). To investigate if and how TNFα interacts with Notch, CD34+ HSPCs were first sorted into CD38lo/− and CD38+ fractions, and seeded separately on DL4+VCAM-1 with and without TNFα. Gene expression was measured using qPCR after 5 days of culture (FIG. 3b).

CD34+ HSPCs [2] = assay: Timed addition of TNFα (day 0, 1, 2 or 3), 7-day culture on DL4+VCAM-1; settings: late addition of TNFα; day 7
Experimental: (§1) For experiments 7 days or longer, HSPCs were seeded at 63-125 cells/mm^2 (equivalent to 2000-4000 cells/well of a 96-well plate) on DL4+VCAM-1-coated surfaces. Experiments shorter than 7 days (CFSE and qPCR) were seeded at 470-780 cells/mm^2 (equivalent to 15,000-25,000 cells/well of a 96-well plate) to provide enough cells for analysis. Cells were cultured in 100 μl/well (32 μl/well for 384-well plate) of Iscove's Modified Eagle Medium (IMDM) supplemented with 20% bovine serum albumin, insulin, and transferrin (BIT 9500) serum substitute (Stemcell Technologies), 1 μg/ml low-density lipoprotein (LDL; Stemcell Technologies), 60 μM ascorbic acid (Sigma), 24 μM 2-mercaptoethanol (Sigma), and 1% penicillin-streptomycin (P/S; Invitrogen). The cytokines used in control condition were SCF, FLT3L, TPO, and IL-7 (also known as the “4F cytokines”, all of which were obtained from R&D Systems), each at a concentration of 20 ng/ml or 100 ng/ml as indicated in the text. All other cytokines were purchased from R&D Systems and used in the combinations and concentrations indicated in the text. For certain experiments, the γ-secretase inhibitor (2S)-N-[(3,5-Difluorophenyl)acetyl]-L-alanyl-2-phenyl] glycine 1,1-dimethylethyl ester (DAPT) or dimethyl sulfoxide (DMSO) was added to media at the concentrations indicated in the text. […]

CD34+ HSPCs [3] = assay: γ-secretase inhibitor (GSI) titration, 14-day culture on DL4+VCAM-1; settings: increasing concentrations of GSI; 14 days
Experimental: as §1

HSPCs = assay: DL4 coating concentration titration, 14-day culture, with or without TNFα; settings: lowest DL4 concentration tested; 14 days; with VCAM-1
Experimental: Tissue culture 96-well plates were coated with DL4-Fc and VCAM-1-Fc (R&D Systems) overnight at 4° C. or for 3-4 hours at room temperature. To coat, DL4 and VCAM-1 were diluted to 15 μg/ml and 2.5 μg/ml, respectively, in 50 μl of phosphate-buffered saline (PBS), resulting in a coating concentration of approximately 24 ng/mm2 of DL4-Fc and 4 ng/mm2 of VCAM-1-Fc. For titration experiments, the concentration of DL4 or VCAM-1 was adjusted accordingly while maintaining a 50 μl volume of PBS. Experiments using 384-well plates scaled were coated similarly but with 16 μl of PBS. Wells were washed once with PBS prior to seeding cells to remove unbound DL4-Fc protein that inhibits Notch signaling.^6
In parallel with the Notch pathway inhibition experiment described above, HSPCs were also seeded on DL4+VCAM-1 for 14 days with decreasing concentrations of DL4 (FIG. 4d). […] Representative flow cytometry plots showing differential proT cell induction with decreasing DL4 concentration in the presence or absence of TNFα are shown in FIG. 4f.

CD34+ HSPCs [4] = assay: Surface expression of CD117, CD123 and CD127 after 24 hours of TNFα stimulation; settings: TNFα stimulation for 24 hours
Experimental: Prior to analysis via flow cytometry, adherent cells were collected from DL4+VCAM-1 surfaces using vigorous pipetting or TrypLE Express Enzyme (ThermoFisher) for 5 minutes at 37° C. Afterwards, cells were rinsed twice with Hanks Balanced Salt Solution (ThermoFisher) plus 2% FBS (HF). Surface antibodies were stained at 1:100-1:300 in HF at room temperature for 15 minutes. Cells were then rinsed once with HF and resuspended in HF with 1:1000 7-AAD to exclude dead cells. Data was acquired with a BD Fortessa™ and compensation and gating was performed with FlowJo™ software and further analysis with the R programming language (version 3.3.2).
Next, the expression of CD117 (c-kit; SCF receptor), CD123 (IL-3 receptor) and CD127 (IL-7 receptor) on CD34+ HSPCs was evaluated in the presence or absence of TNFα stimulation for 24 hours.

CD34+ HSPCs [5] = assay: TPO requirement with or without TNFα, 14-day culture; settings: 14 days
Experimental: To assess the requirement for TPO in T lineage development, CD34+ HSPCs were analyzed by flow cytometry after 14 days in the presence or absence of TNFα, and further in the presence or absence of TPO.

[6] = both CD38lo/− and CD38+ fractions, normalized to β-actin

Substance: TNFα
- expression of any other Notch target genes or NOTCH1 itself [1]: No significant differences
- SPI1 expression ([1]; CD38lo/− but not CD38+ HSPCs): downregulated SPI1 slightly
- GATA3 expression [1, 6]: upregulated
- TCF7 expression [1, 6]: upregulated
- BCL11b expression ([1]; only CD38lo/− HSPCs): upregulated
- CEBPA expression ([1]; only the CD38+ fraction): significantly downregulated
- CD7+ lymphoid cells (CD34+ HSPCs [2]): decrease in CD7+ lymphoid cells
- CD14/33+ myeloid lineage cells (CD34+ HSPCs [2]): increase in CD14/33+ myeloid lineage cells
- CD7+CD5+ proT cell generation under Notch inhibition (CD34+ HSPCs [3]): capable of maintaining CD7+CD5+ proT cell generation with a higher concentration of GSI than the control condition
- DL4 coating concentration down to which CD7+CD5+ proT cell development is maintained (HSPCs): ≤ 2 ng/mm^2
- frequency of CD123+ cells (CD34+ HSPCs [4]): significant increase
- median fluorescent intensity (MFI) of CD123 (CD34+ HSPCs [4]): increase in the median fluorescent intensity
- T lineage development in the absence of TPO (CD34+ HSPCs [5]): supports T lineage development in the absence of TPO
